Molecules are shown by their SMILES.

The target of one series is T1, human glucagon receptor (Homo sapiens, UniProt P47871).
T1 construct: host or cells: human liver samples or a recombinant cell line (alternatives)
Description: Human glucagon receptor affinity ([125I]glucagon displacement, membrane preparation). The conditions noted are these: human glucagon receptor binding assay; stereo column says racemic or R-isomer; read-out: Hu IC50. The format is binding. The procedure: Compounds provided herein are dissolved in a suitable solvent (e.g., dimethlysulfoxide) at a concentration of 10 mM and then diluted in buffer (e.g., 50 mM Hepes, pH 7.4, 5 mM MgCl2, 1 mM CaCl2, and 0.2% BSA) to concentrations ranging from 1 nM to 100 μM. Compounds (20 μL/well) and [^125I]glucagon at the final concentration of 0.125 nM (20 μl/well) (Perkin Elmer) are added to and mixed in wells of a 96-well plate (Costar, Corning) containing 120 μL of buffer. Next, an appropriate aliquot of a membrane preparation containing the human glucagon receptor (isolated from human liver samples or obtained from a recombinant cell line) is added to the wells. The binding mixtures are incubated for 2 hrs at room temperature. In the meantime, a MultiScreen 96-well filter plate (Millipore) is treated with 200 μL of the buffer, which is vacuumed through the filter just before the binding mixtures are transferred to the plate. At the end of incubation, binding mixtures are transferred to the wells of the MultiScreen 96-well filter plate and filtered through by applying vacuum. The plate is washed once with 200 μL per well of the buffer, and the filters are dried and counted using a gamma counter.

For another series, the system named is human hepatocytes. Description: Functional antagonism of glucagon-stimulated glucose production in hepatocytes. Format: cell-based. The conditions noted are these: human hepatocyte assay, 1 nM glucagon; read-out: Hu Hepatocyte EC50. On the procedure:
Primary human, monkey, dog, rat, or mouse hepatocytes are seeded onto collagen-coated 24-well plates in Williams E medium (supplemented with 10% fetal bovine serum) and incubated at 37° C. overnight in M199 medium (supplemented with 15 mM glucose and 10 nM human insulin). The following day cells are washed twice with a glucose-free Kreb-bicarbonate buffer, pH 7.4, containing 0.1% BSA. Cells are then incubated at 37° C. with the aforementioned buffer containing 1 nM glucagon and varying concentrations of a glucagon antagonist (0-100 microM). Control wells without glucagon or antagonist are also included. After 1 hour, an aliquot of the medium is removed and analyzed for glucose content by means of the glucose oxidase method. The background glucose levels observed in the control wells are subtracted from the glucagon and antagonist containing wells. A graph of % glucose concentration vs drug concentration is plotted and an EC50 value for inhibition of glucose production generated using Sigmaplot software (SAS, Cary, N.C.). Alternatively, intracellular cAMP levels are measured using standard kits and EC50 values determined by plotting these levels against drug concentration. Antagonists of the glucagon receptor inhibit glucagon-induced cAMP production.

The nature of series [1]: Oral bioavailability in the rat. The format is in vivo.
For another series, the system named is db/db mouse. Description: Glucose lowering in db/db mice. The format is in vivo. To be noted: oral gavage, freely-feeding db/db mice, 100% = normalization to lean db/+, read-out: % Glu lowering in db/db mouse @ 30 mg/kg. The procedure:
To assess the effects of compounds provided herein on blood glucose levels in the db/db mouse, an animal model of type 2 diabetes, compounds are dissolved in polyethylene glycol-400 and administered by oral gavage to db/db mice in the freely-feeding state at doses of 30 and/or 100 mg/kg. Blood glucose levels are assessed in blood samples obtained by tail bleed at baseline (prior to drug administration) and at regular time intervals over 24 hrs using a portable glucometer such as the OneTouch or HemoCue meters. The magnitude of blood glucose lowering elicited by the compounds provided herein is determined by comparison to those in db/db mice administered only the vehicle. The percentage glucose lowering is calculated by factoring in the blood glucose levels of vehicle-treated lean db/+ (heterozygote) mice, with 100% representing the normalization of blood glucose levels from the hyperglycemic state (vehicle-treated db/db mice) to the normoglycemic state (vehicle-treated db/+ mice).

T1 sequence (P47871 26-477): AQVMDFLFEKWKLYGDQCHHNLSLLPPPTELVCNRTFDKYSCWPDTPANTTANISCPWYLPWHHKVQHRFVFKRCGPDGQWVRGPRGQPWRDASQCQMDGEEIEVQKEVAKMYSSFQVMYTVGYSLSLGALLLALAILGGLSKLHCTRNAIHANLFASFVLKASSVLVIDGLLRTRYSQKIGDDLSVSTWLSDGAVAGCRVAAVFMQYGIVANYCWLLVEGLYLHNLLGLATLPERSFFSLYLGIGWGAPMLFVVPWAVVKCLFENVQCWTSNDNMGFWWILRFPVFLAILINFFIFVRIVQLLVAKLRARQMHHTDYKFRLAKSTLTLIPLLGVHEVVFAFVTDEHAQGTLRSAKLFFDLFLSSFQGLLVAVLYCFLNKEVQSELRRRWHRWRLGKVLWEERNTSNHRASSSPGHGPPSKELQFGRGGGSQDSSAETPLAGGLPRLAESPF

`Cc1cc(C)c(-c2ccc(NC(=O)[C@H](Cc3ccc(C(=O)NCCS(=O)(=O)O)cc3)c3ccc(-c4ccc(C(C)(C)C)cc4)cc3)cc2)c(C)c1`: the IC50 (commonly the concentration that inhibits the measured activity by half) on human glucagon receptor turned out to be 5 nM. Further, in the series with human hepatocytes, the EC50 (commonly the concentration that produces a half-maximal response) stood at 4 nM. Moreover, the OBAV in rat in series [1] came out at 73%. In addition, in the series with db/db mouse, the inhibition in vivo at 30 mg/kg stood at 57%.

As to `Cc1cc(Cl)ccc1-c1ccc(NC(=O)[C@H](Cc2ccc(C(=O)NCCS(=O)(=O)O)cc2)c2cccc(C3CCC(C)(C)CC3)c2)cc1`, the IC50 at human glucagon receptor was found to be 10 nM. In addition, in the series with human hepatocytes, the EC50 came out at 12 nM. This molecule also registered an OBAV in rat in series [1] of 52%. Also, the inhibition in vivo at 30 mg/kg in the series on db/db mouse was 45%.

On to `Cc1cc(Cl)ccc1-c1ccc(NC(=O)[C@H](Cc2ccc(C(=O)NCCS(=O)(=O)O)cc2)c2ccc([C@H]3CC[C@@H](C(C)(C)C)CC3)cc2)cc1`, for which the IC50 on human glucagon receptor worked out at 9 nM. For the same molecule, the EC50 with human hepatocytes stood at 3 nM. The same molecule returned an OBAV in rat in series [1] of 54%. For the same molecule, in the series on db/db mouse, the inhibition in vivo at 30 mg/kg is 53%.

With `Cc1cc(-c2ccc(NC(=O)[C@H](Cc3ccc(C(=O)NCCS(=O)(=O)O)cc3)c3ccc(-c4ccc(C(C)(C)C)cc4)cc3)cc2)ccc1Cl`, the IC50 at human glucagon receptor was found to be 6 nM. Moreover, the EC50 with human hepatocytes turned out to be 31 nM. For the same molecule, the OBAV in rat in series [1] is 62%. Also, the inhibition in vivo at 30 mg/kg with db/db mouse amounted to 33%.

As for `CC1(C)CC=C(c2ccc(NC(=O)[C@H](Cc3ccc(C(=O)NCCS(=O)(=O)O)cc3)c3ccc(-c4ccc(C(C)(C)C)cc4)cc3)cc2)CC1`, the IC50 at human glucagon receptor is 8 nM. For the same molecule, the half-maximal effective concentration (EC50) with human hepatocytes came to 36 nM. In addition, the OBAV in rat in series [1] came to 69%. Besides, the inhibition in vivo at 30 mg/kg with db/db mouse was found to be 29%.

As to `Cc1ccccc1-c1ccc(NC(=O)C(Cc2ccc(C(=O)NCCS(=O)(=O)O)cc2)c2ccc(-c3ccc(C(C)(C)C)cc3)cc2)cc1` (racemic), the IC50 at human glucagon receptor was found to be 10 nM. Besides, the EC50 with human hepatocytes stood at 194 nM. For the same molecule, the inhibition in vivo at 30 mg/kg in the series with db/db mouse turned out to be 45%.

Regarding `Cc1cc(Cl)ccc1-c1ccc(NC(=O)C(Cc2ccc(C(=O)NCCS(=O)(=O)O)cc2)c2ccc(C3CCC(C(C)(C)C)CC3)cc2)cc1` (racemic), on human glucagon receptor, the half-inhibitory concentration (IC50) stood at 12 nM. Further, the EC50 in the series with human hepatocytes stood at 41 nM. The inhibition in vivo at 30 mg/kg with db/db mouse was 58%.

Regarding `Cc1cc(C(F)(F)F)ccc1-c1ccc(NC(=O)C(Cc2ccc(C(=O)NCCS(=O)(=O)O)cc2)c2ccc(C3=CCC(C)(C)CC3)cc2)cc1` (racemic), the IC50 at human glucagon receptor is 11 nM. Besides, in the series with human hepatocytes, the EC50 worked out at 30 nM. Further, the inhibition in vivo at 30 mg/kg in the series on db/db mouse is 20%.

As to `Cc1cc(Cl)ccc1-c1ccc(NC(=O)C(Cc2ccc(C(=O)NCCS(=O)(=O)O)cc2)c2ccc(C3=CCC(C)(C)CC3)cc2)cc1` (racemic), the IC50 on human glucagon receptor stood at 17 nM. Moreover, the EC50 in the series on human hepatocytes came to 49 nM. This molecule gave an OBAV in rat in series [1] of 48%. In addition, the inhibition in vivo at 30 mg/kg with db/db mouse is 42%.

For `Cc1cccc2oc(-c3ccc(NC(=O)C(Cc4ccc(C(=O)NCCS(=O)(=O)O)cc4)c4ccc(C=CC(C)(C)C)cc4)cc3)nc12` (racemic), the IC50 at human glucagon receptor came out at 13 nM. Further, the EC50 in the series on human hepatocytes was determined as 62 nM. The inhibition in vivo at 30 mg/kg in the series with db/db mouse was 39%.

In the case of `Cc1cc(Cl)ccc1-c1ccc(NC(=O)C(Cc2ccc(C(=O)NCCS(=O)(=O)O)cc2)c2cccc(C3=CCC(C)(C)CC3)c2)cc1` (racemic), the IC50 on human glucagon receptor was determined as 9 nM. Further, the EC50 in the series with human hepatocytes stood at 26 nM. The same molecule gave an OBAV in rat in series [1] of 38%. Further, the inhibition in vivo at 30 mg/kg with db/db mouse came to 56%.

Turning to `CC1(C)CC=C(c2cccc(C(Cc3ccc(C(=O)NCCS(=O)(=O)O)cc3)C(=O)Nc3ccc(-c4ccc(Cl)cc4Cl)cc3)c2)CC1` (racemic), the IC50 at human glucagon receptor is 15 nM. In the series on human hepatocytes, the EC50 came out at 30 nM. Moreover, in the series on db/db mouse, the inhibition in vivo at 30 mg/kg is 28%.

Turning to `Cc1cc(NC(=O)C(Cc2ccc(C(=O)NCCS(=O)(=O)O)cc2)c2ccc(-c3ccc(C(C)(C)C)cc3)cc2)ccc1-c1nc2ccccc2o1` (racemic), the IC50 on human glucagon receptor came to 8 nM. For the same molecule, in the series on human hepatocytes, the EC50 came to 167 nM.

On to `Cc1ccc(Cl)cc1-c1ccc(NC(=O)C(Cc2ccc(C(=O)NCCS(=O)(=O)O)cc2)c2ccc(-c3ccc(C(C)(C)C)cc3)cc2)cc1` (racemic), for which, on human glucagon receptor, the IC50 came to 10 nM. The EC50 in the series on human hepatocytes worked out at 192 nM.

With `CC(C)(C)c1ccc(-c2ccc(C(Cc3ccc(C(=O)NCCS(=O)(=O)O)cc3)C(=O)Nc3ccc(C4=CCCC4)cc3)cc2)cc1` (racemic), the IC50 on human glucagon receptor worked out at 17 nM. The EC50 in the series with human hepatocytes is 65 nM. The inhibition in vivo at 30 mg/kg in the series on db/db mouse worked out at 30%.

`CC(C)(C)C1CCC(c2ccc(C(Cc3ccc(C(=O)NCCS(=O)(=O)O)cc3)C(=O)Nc3ccc(-c4ccc(Cl)cc4Cl)cc3)cc2)CC1` (racemic) [drawing 106]: the IC50 at human glucagon receptor amounted to 16 nM. Also, the inhibition in vivo at 30 mg/kg with db/db mouse was 25%.
